In brackets after ≈: the same amount, converted by molar mass. Structures can show the parent of a compound that is named as a salt. Where two headings read alike, the source gives them in different places.
Assays:
Vero cells = type: cell-based; settings: African green monkey, 48 h
Description: Cytotoxicity was measured against the African green monkey adult kidney cell line (Vero). Vero cells were plated at 25,000 cells/mL in black 96-well assay plates pre-populated with compound dilutions and controls. Cells were incubated in a humidified 5% CO2 environment at 37°C for 48 h; intracellular ATP levels were measured using CellTiter-Glo®Reagent (Promega, Madison, WI). Luminescence was measured using a Victor 2 plate reader and percentage inhibition of growth calculated. Results were expressed as toxicity concentration (TC50) = concentration of compound required to inhibit growth by 50%.

PanC-TetONM strain = experiment: microbe, parasite or virus in culture; type: cell-based, Mycobacterium tuberculosis
[1] = system: M. tuberculosis H37Rv (RvS); experiment: microbe, parasite or virus in culture; type: cell-based, Mycobacterium tuberculosis
HeLa cells = type: cell-based; settings: human
PanCMTB [2] = target: T1, PanCMTB (Mycobacterium tuberculosis, UniProt P9WIL5); experiment: Low-throughput kinetic NADH depletion assay for PanCMTB, mode of inhibition; type: biochemical; settings: for mode of inhibition / Ki: with respect to pantoate; for Ki: read-out: Ki inhibition constant; for α (parameter of mixed inhibition equation): with respect to the substrate pantoate
T1 construct: 6X-Histidine (N); made in house; host or cells: E. coli BL21(ΔE3), vector pET28b+
T1 sequence (P9WIL5 whole entry, looked up): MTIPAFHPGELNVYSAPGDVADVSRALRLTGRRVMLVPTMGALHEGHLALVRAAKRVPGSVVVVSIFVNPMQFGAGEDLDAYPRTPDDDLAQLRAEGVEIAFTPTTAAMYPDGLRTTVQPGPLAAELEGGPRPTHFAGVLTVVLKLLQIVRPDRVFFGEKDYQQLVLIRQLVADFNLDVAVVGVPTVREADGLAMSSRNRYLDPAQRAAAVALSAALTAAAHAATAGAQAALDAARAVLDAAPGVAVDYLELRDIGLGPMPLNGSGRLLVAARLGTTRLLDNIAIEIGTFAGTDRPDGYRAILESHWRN

PanCMTB [3] = target: T1, PanCMTB; experiment: High-throughput single-timepoint fluorescence assay for PanCMTB activity (HTS and CRC); type: biochemical; settings: for inhibition of the reaction: control inhibitor
Description: The activity of recombinant PanCMTB was measured, as previously described. Briefly, compounds or carrier DMSO alone were incubated with PanCMTB, the coupling enzymes, and their reagents for five minutes. The reaction was then initiated by addition of the PanCMTB substrates, pantoate and β-alanine. The reaction was conducted in wells of a black clear-bottomed microplate containing a final volume of 40 µL per well. The final concentrations were 0.4 mM NADH, 10 mM ATP, 1 mM pantoate, 5 mM β-alanine, 1 mM phosphoenol pyruvate (PEP-K), 10 mM MgCl2, 2% DMSO, 1 µg/mL of PanC, and 18 U/mL each of myokinase, pyruvate kinase and lactate dehydrogenase in 100 mM HEPES pH 7.8. The plate was immediately transferred to a SpectraMax micro-plate reader and the rate of NADH depletion was monitored by measuring the absorbance at 340 nm every 20 s for a total of 20 min.
The kinetic NADH depletion assay was initiated as described above. After 30 minutes 10 µL of solution containing fluorescent reagents was added to each well. The final 50 µL reaction contained 12.5 U/mL of diaphorase and 5 mM resazurin. After thorough mixing, the plate was transferred to a micro-plate reader and the level of resulting NADH-dependent resorufin determined by measuring fluorescence (excitation and emission filters set at […], respectively).
HTS library sets of individual compounds were plated at 1 mM - diluted first into HEPES and finally into the assay for a final assay concentration (FAC) of 20 µM. For concentration response curves (CRCs), the compounds were plated in single wells at 10 mM and diluted 3-fold across 9 adjacent wells in a row. Serial dilutions were made in 100% DMSO to ensure accurate concentrations of compound across the series. This entire plate was then treated in the same format as the HTS library plates, for FACs ranging from 200 µM- 0.01 µM in 2% DMSO (details provided in Text S1 and shown in Figure S3).

PanCMTB [4] = target: T1, PanCMTB; design: method as in PMID 17175524; settings: read-out: inhibition constant; cited from earlier work
[5] = Mycobacterium tuberculosis, 144 h
[6] = Mycobacterium tuberculosis, H37RV, 144 h

Compound | TC50 (Vero cells) | MIC50 (PanC-TetONM strain; Mycobacterium tuberculosis) | MIC50 (PanC-TetONM strain; [5]) | MIC50 [1] | MIC50 [1, 6] | average TC50 (HeLa cells) | mode of inhibition (PanCMTB [2]) | Ki (PanCMTB [2]) | α (parameter of mixed inhibition equation) (PanCMTB [2]) | EC50 (PanCMTB [3]) | MIC50 (PanC-TetONM strain) | Ki (PanCMTB [4]) | inhibition of the reaction (PanCMTB [3]; higher of two control concentrations) | inhibition of the reaction (PanCMTB [3]; lower of two control concentrations)
CCSc1c(C#N)c(-c2ccc(-c3ccccc3)cc2)c(C(=O)O)n1C [compound 1] | 70 µM | 111 µM (≈ 40.2 µg/mL) | 69 µM (≈ 25 µg/mL) | 115 µM (≈ 41.7 µg/mL) | 115 µM (≈ 41.7 µg/mL) | 179 µM | competitive inhibition | 0.174 µM | 128 | 1.8 µM | – | – | – | –
CCc1c(C#N)c(-c2ccc(-c3ccc(C#N)cc3)cc2)c(C(=O)O)n1C [compound 2] | 96 µM | 53 µM (≈ 18.8 µg/mL) | 24 µM (≈ 8.53 µg/mL) | 54 µM (≈ 19.2 µg/mL) | 54 µM (≈ 19.2 µg/mL) | 111 µM | competitive inhibition | 0.297 µM | 78 | 4 µM | 24 µM (≈ 8.53 µg/mL) | – | – | –
CCN(CC)CCOC(=O)C(Cc1cccc2ccccc12)CC1CCCO1 (stereo not drawn) [nafronyl oxalate, reference compound] | – | – | – | – | – | – | – | – | – | – | – | ~75 µM | ~80% | ~50%

From paper PMC3820577, “A High-Throughput Screen against Pantothenate Synthetase (PanC) Identifies 3-Biphenyl-4-Cyanopyrrole-2-Carboxylic Acids as a New Class of Inhibitor with Activity against Mycobacterium tuberculosis” (PLoS ONE, 2013)
